The text below walks through data of paper PMC8300687, “A Fine-Tuned Lipophilicity/Hydrophilicity Ratio Governs Antibacterial Potency and Selectivity of Bifurcated Halogen Bond-Forming NBTIs” (Antibiotics, 2021).

In brackets after ≈: the same amount, converted by molar mass. Read-outs that look alike come from different tables or passages of the source.

One series deals with E. coli (QA-11.3). Put plainly: MIC broth microdilution, E. coli QA-11.3. The class given is cell-based. Conditions: Escherichia coli, 20 h; read-out: MIC E. coli (QA-11.3). As for the experimental part: (§1) Antimicrobial testing was carried out by the broth microdilution method in 96-well plate format following the Clinical and Laboratory Standards Institute (CLSI) guidelines and European Committee on Antimicrobial Susceptibility Testing (EUCAST) recommendations. Bacterial suspension of specific bacterial strain equivalent to 0.5 McFarland turbidity standard was diluted with cation-adjusted Mueller Hinton broth with TES (Thermo Fisher Diagnostic, Landsmeer, The Netherlands), to obtain a final inoculum of 10^5 CFU/mL. Compounds dissolved in DMSO and inoculum were mixed together and incubated for 18–20 h at 35 °C. Suspensions of Mycobacterium sp. were prepared into a tube of Middelbrook 7H9 broth supplemented with 5% OADC (Thermo Scientific, Trek Diagnostic Systems, West Sussex, UK) and incubated for at least 10 days. After incubation the minimal inhibitory concentration (MIC) values were determined by visual inspection as the lowest dilution of compounds showing no turbidity. Tetracycline was used as a positive control on every assay plate.
Background: Broth dilution looks for growth in wells or tubes with falling amounts of substance.

The subject of another series is M. avium. The series is described as follows: MIC, M. avium. It is filed as cell-based. Conditions: Mycobacterium avium; read-out: MIC M. avium. As for the experimental part:
as §1

Another series relates to MRSA (QA-11.7). The series is described as follows: MIC broth microdilution, MRSA QA-11.7. It is filed as cell-based, methicillin-resistant S. aureus. Conditions: Staphylococcus aureus, 20 h, read-out: MIC MRSA (QA-11.7). As to the method: as §1
The target of the next series is T1, E. coli DNA gyrase (Escherichia coli, UniProt P0AES4).
T1 construct: purchased Inspiralis (Norwich, UK)
T1 sequence (P0AES4 whole entry): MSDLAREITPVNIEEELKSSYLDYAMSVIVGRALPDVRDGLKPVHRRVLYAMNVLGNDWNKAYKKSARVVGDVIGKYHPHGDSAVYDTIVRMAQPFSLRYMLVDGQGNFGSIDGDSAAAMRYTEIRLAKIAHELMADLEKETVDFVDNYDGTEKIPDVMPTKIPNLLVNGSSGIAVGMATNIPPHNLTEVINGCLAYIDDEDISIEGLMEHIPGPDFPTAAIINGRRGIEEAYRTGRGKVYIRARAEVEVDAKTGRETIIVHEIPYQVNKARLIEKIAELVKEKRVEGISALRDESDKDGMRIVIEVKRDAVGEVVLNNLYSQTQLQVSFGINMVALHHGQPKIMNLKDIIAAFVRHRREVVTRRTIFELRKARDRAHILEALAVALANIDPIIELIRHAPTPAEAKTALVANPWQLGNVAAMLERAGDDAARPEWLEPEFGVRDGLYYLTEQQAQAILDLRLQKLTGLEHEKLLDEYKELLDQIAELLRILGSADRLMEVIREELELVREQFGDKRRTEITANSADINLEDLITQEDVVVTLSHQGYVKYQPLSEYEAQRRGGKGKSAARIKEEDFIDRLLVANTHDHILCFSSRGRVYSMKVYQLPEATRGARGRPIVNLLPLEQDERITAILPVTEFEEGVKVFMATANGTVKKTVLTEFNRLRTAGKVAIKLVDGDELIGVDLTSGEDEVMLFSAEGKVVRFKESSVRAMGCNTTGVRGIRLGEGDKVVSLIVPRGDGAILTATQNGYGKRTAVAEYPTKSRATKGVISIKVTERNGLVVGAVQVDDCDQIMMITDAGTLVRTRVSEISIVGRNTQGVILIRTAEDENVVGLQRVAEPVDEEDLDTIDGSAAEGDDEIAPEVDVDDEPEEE
Put plainly: Gyrase Supercoiling High Throughput Plate assay, E. coli. It is filed as biochemical. As for the experimental part: (§2) A Gyrase Supercoiling High Throughput Plate assay kit, purchased from Inspiralis (Norwich. UK) was used to determine IC50 values of compounds on S. aureus and E. coli. […] Biotinylated oligonucleotide in wash buffer was immobilized onto the wells, and the excess oligonucleotide was washed off with wash buffer and ultrapure water. […] The reactions were stopped by adding the TF buffer (50 mM NaOAc (pH 4.7), 50 mM NaCl, and 50 mM MgCl2) to allow the triplex formation (biotin-oligonucleotide-plasmid) for additional 30 min. Afterward, the unbound plasmid was washed off using TF buffer, and the solution of Promega Diamond dye in T10 buffer (10 mM Tris-HCl (pH 8.0), 1 mM EDTA) was added. […] IC50 value represents the mean of two to four independent measurements.

The nature of a further series: in vitro. The note with it: PAMPA. As to the method: (§3) Prior to the measurements of solubility and permeability isocratic HPLC methods were developed. […] The individual method parameters for each compound are given in the Supplementary Materials Table S1.
A 96-well precoated three-layer PAMPA plates (Corning® Gentest™ Pre-coated PAMPA Plate System, Corning, NY, USA) were used according to the manufacturer’s instructions and as described previously with 300 µL of the donor solutions in the bottom compartment and 200 µL of the acceptor solution (pH 7.4 PBS) in the upper compartment at 37 °C and a 4-h incubation time. The initial and end donor solutions were injected at a 5 µL injection volume. The initial donor solutions were also diluted 100-fold and injected at a 100 µL injection volume to serve as external references for the end acceptor solutions which were injected at the same injection volume. The permeability calculations were made with a manufacturer-provided Excel spreadsheet directly from the measured peak areas accounting for the relevant dilutions and injection volumes.
(In general: In PAMPA a lipid-coated filter parts donor from acceptor wells.)

The subject of series [1] is S. alachua RDK 030c (QA-1482/04). The series is described as follows: MIC broth microdilution, S. alachua. The class given is cell-based. The note with it: Salmonella; read-out: MIC S. alachua RDK 030c (QA-1482/04). As to the method: as §1
The test system of series [2] is C. jejuni RDK 135 (ATCC 33560). The series is described as follows: MIC broth microdilution, C. jejuni. The class given is cell-based. Conditions: Campylobacter jejuni, ATCC33560; read-out: MIC C. jejuni RDK 135 (ATCC 33560). As to the method: as §1
Series [3] concerns S. agalactiae RDK 047 (QA-990/02). Put plainly: MIC broth microdilution, S. agalactiae. The note with it: Streptococcus agalactiae; read-out: MIC S. agalactiae RDK 047 (QA-990/02). It is filed as cell-based. As for the experimental part:
as §1

Another series relates to E. coli N43 (CGSC# 5583). The series is described as follows: MIC broth microdilution, E. coli N43. It is filed as cell-based. The note with it: Escherichia coli. As for the experimental part:
as §1

The next series relates to M. smegmatis. The series is described as follows: MIC, M. smegmatis. The class given is cell-based, Mycobacterium smegmatis. The note with it: Mycolicibacterium smegmatis; read-out: MIC M. smegmatis. As to the method:
as §1

In series [4] the test system is P. aeruginosa RDK 184 (DSM 939). The series is described as follows: MIC broth microdilution, P. aeruginosa. The class given is cell-based. Conditions: Pseudomonas aeruginosa, DSM939; read-out: MIC P. aeruginosa RDK 184 (DSM 939). As for the experimental part: as §1
Another series relates to MRSA. Put plainly: MIC broth microdilution, MRSA. It is filed as cell-based, methicillin-resistant S. aureus. Conditions: Staphylococcus aureus, read-out: MIC MRSA. As for the experimental part:
as §1

The test system of the next series is MRSA (QA-11.6). The series is described as follows: MIC broth microdilution, MRSA QA-11.6. The class given is cell-based, methicillin-resistant S. aureus. Conditions: Staphylococcus aureus, resistant to cefoxitin, gentamicin, sulfamethoxazole, tetracycline, read-out: MIC MRSA (QA-11.6). As for the experimental part: as §1
In the next series the target is T2, S. aureus DNA gyrase (Staphylococcus aureus, UniProt P20831).
T2 construct: purchased Inspiralis (Norwich, UK)
T2 sequence (P20831 whole entry): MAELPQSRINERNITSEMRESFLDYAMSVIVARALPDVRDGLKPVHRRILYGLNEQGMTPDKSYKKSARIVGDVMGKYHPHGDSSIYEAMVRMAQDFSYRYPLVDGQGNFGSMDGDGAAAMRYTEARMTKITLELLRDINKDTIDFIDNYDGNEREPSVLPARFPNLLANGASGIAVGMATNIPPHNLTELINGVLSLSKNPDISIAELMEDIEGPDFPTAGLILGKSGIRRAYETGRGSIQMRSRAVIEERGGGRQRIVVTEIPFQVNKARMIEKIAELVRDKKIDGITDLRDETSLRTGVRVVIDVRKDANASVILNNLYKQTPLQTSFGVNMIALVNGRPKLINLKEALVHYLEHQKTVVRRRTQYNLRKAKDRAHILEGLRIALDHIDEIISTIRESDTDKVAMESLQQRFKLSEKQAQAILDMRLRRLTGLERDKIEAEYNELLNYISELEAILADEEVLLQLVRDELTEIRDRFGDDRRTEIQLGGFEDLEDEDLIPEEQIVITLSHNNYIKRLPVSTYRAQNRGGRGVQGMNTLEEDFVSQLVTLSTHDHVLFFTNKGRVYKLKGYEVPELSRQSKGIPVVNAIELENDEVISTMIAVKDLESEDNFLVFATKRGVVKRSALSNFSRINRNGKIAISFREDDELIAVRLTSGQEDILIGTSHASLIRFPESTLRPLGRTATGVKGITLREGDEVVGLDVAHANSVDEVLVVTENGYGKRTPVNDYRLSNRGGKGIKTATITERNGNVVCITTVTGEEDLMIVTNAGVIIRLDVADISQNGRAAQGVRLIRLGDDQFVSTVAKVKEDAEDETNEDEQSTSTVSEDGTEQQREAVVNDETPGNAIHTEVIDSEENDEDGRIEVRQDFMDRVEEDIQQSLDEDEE
T2 sequence (P0A0K8 whole entry partner): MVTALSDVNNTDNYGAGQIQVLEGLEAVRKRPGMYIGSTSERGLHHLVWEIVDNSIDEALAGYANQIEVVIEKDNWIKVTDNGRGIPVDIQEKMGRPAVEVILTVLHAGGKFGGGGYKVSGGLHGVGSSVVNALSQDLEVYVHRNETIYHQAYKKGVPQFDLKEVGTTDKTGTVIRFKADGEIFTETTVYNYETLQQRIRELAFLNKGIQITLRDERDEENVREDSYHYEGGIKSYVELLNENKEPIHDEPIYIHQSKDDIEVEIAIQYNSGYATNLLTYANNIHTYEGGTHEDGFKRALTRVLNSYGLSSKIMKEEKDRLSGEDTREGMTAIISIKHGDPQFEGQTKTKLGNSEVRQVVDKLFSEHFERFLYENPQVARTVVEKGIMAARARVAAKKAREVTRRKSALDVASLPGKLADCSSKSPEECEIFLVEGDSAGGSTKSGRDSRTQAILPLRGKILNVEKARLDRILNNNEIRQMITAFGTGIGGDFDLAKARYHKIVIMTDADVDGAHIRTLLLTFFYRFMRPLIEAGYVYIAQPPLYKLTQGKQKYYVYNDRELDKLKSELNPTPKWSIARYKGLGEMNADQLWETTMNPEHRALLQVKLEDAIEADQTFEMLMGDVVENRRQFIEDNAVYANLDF
Put plainly: biochemical. It is filed as biochemical. The note with it: for LE DNA Gyrase S. aureus: LE = (1.37/HA) × pIC50; for IC50: fluorescence plate supercoiling assay, mean of two to four measurements. As for the experimental part: as §2

Series [5] has as its system E. faecalis DRK 057 (ATCC 29212). The series is described as follows: MIC broth microdilution, E. faecalis. It is filed as cell-based. The note with it: Enterococcus faecalis, ATCC29212; read-out: MIC E. faecalis DRK 057 (ATCC 29212). As for the experimental part:
as §1

Another series has as its system S. pneumoniae (QA-10/02). The series is described as follows: MIC broth microdilution, S. pneumoniae. The class given is cell-based. The note with it: Streptococcus pneumoniae. As to the method:
as §1

Series [6] in a line: Equilibrium solubility at pH 6.8. The note with it: phosphate buffered saline, 37 °C, pH 6.8, aqueous buffer, thermodynamic from solid. As for the experimental part:
as §3
The vials were then placed in a homogenizer (Next Advance Bullet Blender, Troy, NY, USA) for 5 min ad speed setting “2” after which they were kept in a thermostated shaker (Tehtnica HeatMix, Domel, Slovenia) at 37 °C and 1200 RPM for 24 h. […] Twenty µL of these solutions were injected for the HPLC analysis by the described methods (Supplementary Materials Table S1). External standards for calibration were made in a mobile phase with 5% acetonitrile in a range of 30–90 mg/L and injected at 20 µL injection volumes.

For series [7], the system named is A. baumannii 8C6 (GES-14). The series is described as follows: MIC broth microdilution, A. baumannii. It is filed as cell-based. The note with it: Acinetobacter baumannii; read-out: MIC A. baumannii 8C6 (GES-14). As to the method: as §1
A further series has as its system E. coli D22. Put plainly: MIC broth microdilution, E. coli D22. The class given is cell-based. Conditions: Escherichia coli, D22; mutation in the lpxC gene that increases membrane permeability; read-out: MIC E. coli D22. As for the experimental part:
as §1

The mark [8] stands for this setting: read-out: E. coli N43 MIC in molar.
[9] abbreviates: read-out: MIC E. coli N43 (CGSC# 5583).

For `COc1ccc2nccc(CCN3CCC(NCc4nc5ccccc5n4C)CC3)c2n1` [Compound 3, 1-(2-(6-Methoxy-1,5-naphthyridin-4-yl)ethyl)-N-((1-methyl-1H-benzo[d]imidazol-2-yl)methyl)piperidin-4-amine], the MIC in the series with E. coli (QA-11.3) was 128 µg/mL (≈ 297 µM); in the series on M. avium, above 128 µg/mL; in the series on MRSA (QA-11.7), 8 µg/mL (≈ 18.6 µM); in series [1], above 128 µg/mL; in series [2], 1 µg/mL (≈ 2.32 µM); in series [3] it was below 1 µg/mL. Besides, the MIC in the series with E. coli N43 (CGSC# 5583) (setting [8]) is 37.2 µM; with E. coli N43 (CGSC# 5583) (setting [9]) it was 16 µg/mL; with M. smegmatis it was 4 µg/mL (≈ 9.29 µM); in series [4] it was above 128 µg/mL; in the series with MRSA, 2 µg/mL (≈ 4.65 µM); in the series with MRSA (QA-11.6), 2 µg/mL (≈ 4.65 µM). Besides, the MIC is 4 µg/mL (≈ 9.29 µM) in series [5], 2 µg/mL (≈ 4.65 µM) in the series with S. pneumoniae (QA-10/02), above 128 µg/mL in series [7] and above 128 µg/mL in the series with E. coli D22. Besides, the IC50 (as a rule, the midpoint of a concentration-inhibition curve) against E. coli DNA gyrase was above 100000 nM; at S. aureus DNA gyrase, 1600 ± 350 nM. Also, the values for the Papp at 4 h in the series “in vitro” and in the series “in vitro” (pH 7.4) were above 2.7 ×10⁻⁶ cm/s and 5.4 ×10⁻⁶ cm/s, respectively. Moreover, the “LE DNA Gyrase S. aureus” value on S. aureus DNA gyrase was 0.25. Also, the solubility (thermodynamic) (in general, the concentration in solution at equilibrium with solid) at 24 h in [6] turned out to be 349 µg/mL (≈ 811 µM).

Take `COc1ccc2nccc(CCN3CCC(NCc4cnn(-c5ccc(F)cc5)c4)CC3)c2n1` [Compound 4, N-((1-(4-Fluorophenyl)-1H-pyrazol-4-yl)methyl)-1-(2-(6-methoxy-1,5-naphthyridin-4-yl)ethyl)piperidin-4-amine]: the MIC in the series with E. coli (QA-11.3) was 8 µg/mL (≈ 17.4 µM); with M. avium, 128 µg/mL (≈ 278 µM); with MRSA (QA-11.7), 2 µg/mL (≈ 4.34 µM); in [1], 128 µg/mL (≈ 278 µM); in series [2], 128 µg/mL (≈ 278 µM); in [3], 2 µg/mL (≈ 4.34 µM). The MIC in the series with E. coli N43 (CGSC# 5583) (setting [8]) is 4.34 µM; in the series with E. coli N43 (CGSC# 5583) (setting [9]) it was 2 µg/mL; with M. smegmatis it was at most 1 µg/mL; in series [4], above 128 µg/mL; in the series with MRSA, 2 µg/mL (≈ 4.34 µM); in the series with MRSA (QA-11.6) it was 4 µg/mL (≈ 8.69 µM). For the same molecule, the MIC in series [5] was 8 µg/mL (≈ 17.4 µM); in the series with S. pneumoniae (QA-10/02), 4 µg/mL (≈ 8.69 µM); in series [7], 32 µg/mL (≈ 69.5 µM); with E. coli D22, 16 µg/mL (≈ 34.7 µM). The IC50 against E. coli DNA gyrase is 13300 ± 2840 nM; against S. aureus DNA gyrase, 510 ± 250 nM. Moreover, the “LE DNA Gyrase E. coli” value at E. coli DNA gyrase (LE = (1.37/HA) × pIC50) is on record as 0.20. Moreover, the Papp (usually the rate of passage across a membrane or cell layer, normalised by area and donor concentration) at 4 h in the series “in vitro” was above 2.7 ×10⁻⁶ cm/s; in the series “in vitro” (pH 7.4) it was 14.2 ×10⁻⁶ cm/s. Further, the “LE DNA Gyrase S. aureus” value at S. aureus DNA gyrase amounted to 0.25. Besides, the thermodynamic solubility at 24 h in [6] is 585 µg/mL (≈ 1270 µM).

Regarding `COc1ccc2nccc(CCN3CCC(NCc4ccc(Cl)cc4)CC3)c2n1` [Compound 13], the MIC in the series on E. coli (QA-11.3) is 2 µg/mL (≈ 4.87 µM); with M. avium, 4 µg/mL (≈ 9.73 µM); in the series with MRSA (QA-11.7), 0.5 µg/mL (≈ 1.22 µM); in series [1], 32 µg/mL (≈ 77.9 µM); in series [2] it was 2 µg/mL (≈ 4.87 µM); in [3] it was 1 µg/mL (≈ 2.43 µM). Moreover, the MIC in the series on E. coli N43 (CGSC# 5583) (setting [8]) is 1.22 µM; with E. coli N43 (CGSC# 5583) (setting [9]), 0.5 µg/mL; in the series with M. smegmatis it was 0.25 µg/mL (≈ 0.608 µM); in [4] it was above 128 µg/mL; in the series on MRSA, 0.25 µg/mL (≈ 0.608 µM); in the series with MRSA (QA-11.6) it was 0.25 µg/mL (≈ 0.608 µM). Besides, the MIC in series [5] turned out to be 1 µg/mL (≈ 2.43 µM); against S. pneumoniae (QA-10/02), 0.5 µg/mL (≈ 1.22 µM); in series [7], 4 µg/mL (≈ 9.73 µM); in the series on E. coli D22, 2 µg/mL (≈ 4.87 µM). In addition, the apparent permeability (Papp) at 4 h in “in vitro” is above 2.7 ×10⁻⁶ cm/s; in the series “in vitro” (pH 7.4) it was 13.2 ×10⁻⁶ cm/s. Moreover, the solubility (thermodynamic) at 24 h in series [6] turned out to be 119 µg/mL (≈ 290 µM).
